Test results as given in the supplement of paper PMC10307832.

Key:
Assay in all cases: relative viability (nuclei count vs DMSO), 5 days (fraction); higher = more cells survive
[1] = system: SK-MES-1; conditions: first compound 500 µM
How it was run: (§1)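 Dosing by pin tool came one day after lung cancer cell lines were seeded in 1536-well plates, using either one drug or a fixed anchor-drug dose plus five library-drug doses (not always all listed) in √10 steps. After 5 days, nuclei were counted on 4× images. Relative viability is treated-well nuclei count divided by vehicle-well nuclei count, and values are medians of duplicate plates.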

[2] = system: NCI-H358
How it was run: as §1

[3] = system: PC-14
How it was run: as §1

[4] = system: LCLC-97TM1
How it was run: as §1

[5] = system: NCI-H1651
How it was run: as §1

[6] = system: NCI-H2085
How it was run: as §1

[7] = system: NCI-H1792
How it was run: as §1

[8] = system: ABC-1
How it was run: as §1

[9] = system: NCI-H1355
How it was run: as §1

[10] = system: A-427
How it was run: as §1

[11] = system: NCI-H661
How it was run: as §1

[12] = system: H3255
How it was run: as §1

**Q.** `O=C(O)CCCCC(CCSCc1ccccc1)SCc1ccccc1` (stereo not given) [CPI-613] + C[C@@H](Oc1cc(-c2cnn(C3CCNCC3)c2)cnc1N)c1c(Cl)ccc(F)c1Cl [Crizotinib] (partner 1 µM) was tested. Which relative viability [1] did it give?
**A.** 0.734

**Q.** What about the relative viability ([2]; first compound 5 µM) of the same compound?
**A.** 0.659

**Q.** And the relative viability ([2]; first compound 15.81 µM)?
**A.** 0.606

**Q.** What about the relative viability ([2]; first compound 50 µM) of the same compound?
**A.** 0.501

**Q.** What about the relative viability ([2]; first compound 158.11 µM) of the same compound?
**A.** 0.104

**Q.** What about the relative viability ([2]; first compound 500 µM) of the same compound?
**A.** 0.0191

**Q.** What about the relative viability ([3]; first compound 5 µM) of the same compound?
**A.** 0.871

**Q.** And the relative viability ([3]; first compound 15.81 µM)?
**A.** 0.939

**Q.** What about the relative viability ([3]; first compound 50 µM) of the same compound?
**A.** 0.799

**Q.** What about the relative viability ([3]; first compound 158.11 µM) of the same compound?
**A.** 0.848

**Q.** And the relative viability ([3]; first compound 500 µM)?
**A.** 0.33

**Q.** And the relative viability ([4]; first compound 5 µM)?
**A.** 0.465

**Q.** What about the relative viability ([4]; first compound 15.81 µM) of the same compound?
**A.** 0.516

**Q.** What about the relative viability ([4]; first compound 50 µM) of the same compound?
**A.** 0.379

**Q.** What about the relative viability ([4]; first compound 158.11 µM) of the same compound?
**A.** 0.11

**Q.** And the relative viability ([4]; first compound 500 µM)?
**A.** 0.0433

**Q.** What about the relative viability ([5]; first compound 5 µM) of the same compound?
**A.** 0.838

**Q.** What about the relative viability ([5]; first compound 15.81 µM) of the same compound?
**A.** 0.769

**Q.** And the relative viability ([5]; first compound 50 µM)?
**A.** 0.922

**Q.** What about the relative viability ([5]; first compound 158.11 µM) of the same compound?
**A.** 0.818

**Q.** What about the relative viability ([5]; first compound 500 µM) of the same compound?
**A.** 0.927

**Q.** What about the relative viability ([6]; first compound 5 µM) of the same compound?
**A.** 0.786

**Q.** And the relative viability ([6]; first compound 15.81 µM)?
**A.** 0.886

**Q.** And the relative viability ([6]; first compound 50 µM)?
**A.** 0.839

**Q.** What about the relative viability ([6]; first compound 158.11 µM) of the same compound?
**A.** 0.415

**Q.** What about the relative viability ([6]; first compound 500 µM) of the same compound?
**A.** 0.231

**Q.** And the relative viability ([7]; first compound 5 µM)?
**A.** 0.937

**Q.** What about the relative viability ([7]; first compound 15.81 µM) of the same compound?
**A.** 0.909

**Q.** What about the relative viability ([7]; first compound 50 µM) of the same compound?
**A.** 0.914

**Q.** What about the relative viability ([7]; first compound 158.11 µM) of the same compound?
**A.** 0.91

**Q.** What about the relative viability ([7]; first compound 500 µM) of the same compound?
**A.** 0.753

**Q.** And the relative viability ([8]; first compound 5 µM)?
**A.** 0.984

**Q.** What about the relative viability ([8]; first compound 15.81 µM) of the same compound?
**A.** 0.855

**Q.** And the relative viability ([8]; first compound 50 µM)?
**A.** 0.875

**Q.** And the relative viability ([8]; first compound 158.11 µM)?
**A.** 0.367

**Q.** And the relative viability ([8]; first compound 500 µM)?
**A.** 0.213

**Q.** What about the relative viability ([9]; first compound 5 µM) of the same compound?
**A.** 1.09

**Q.** And the relative viability ([9]; first compound 15.81 µM)?
**A.** 1.01

**Q.** What about the relative viability ([9]; first compound 50 µM) of the same compound?
**A.** 1.07

**Q.** And the relative viability ([9]; first compound 158.11 µM)?
**A.** 0.152

**Q.** And the relative viability ([9]; first compound 500 µM)?
**A.** 0.136

**Q.** And the relative viability ([10]; first compound 5 µM)?
**A.** 0.89

**Q.** And the relative viability ([10]; first compound 15.81 µM)?
**A.** 0.885

**Q.** What about the relative viability ([10]; first compound 50 µM) of the same compound?
**A.** 0.754

**Q.** And the relative viability ([10]; first compound 158.11 µM)?
**A.** 0.175

**Q.** What about the relative viability ([10]; first compound 500 µM) of the same compound?
**A.** 0.126

**Q.** What about the relative viability ([11]; first compound 15.81 µM) of the same compound?
**A.** 1.03

**Q.** And the relative viability ([11]; first compound 50 µM)?
**A.** 0.997

**Q.** And the relative viability ([11]; first compound 158.11 µM)?
**A.** 1.15

**Q.** And the relative viability ([11]; first compound 500 µM)?
**A.** 0.817

**Q.** And the relative viability ([12]; first compound 5 µM)?
**A.** 0.773

**Q.** And the relative viability ([12]; first compound 15.81 µM)?
**A.** 0.894

**Q.** And the relative viability ([12]; first compound 50 µM)?
**A.** 0.914

**Q.** And the relative viability ([12]; first compound 158.11 µM)?
**A.** 0.831

**Q.** And the relative viability ([12]; first compound 500 µM)?
**A.** 0.742
